From patent publication US10407381B2 (THE BOARD OF TRUSTEES OF THE UNIVERSITY OF ILLINOIS, priority 2015, dated 2019)

Each molecule was assayed against 5-HT2A (Homo sapiens, UniProt P28223) (assay: Calcium flux (FLIPR) assay, human 5-HT2A stably expressed in HEK-293 (Flp-In-293) cells). Settings: not given.
Chain of 5-HT2A (P28223 whole entry): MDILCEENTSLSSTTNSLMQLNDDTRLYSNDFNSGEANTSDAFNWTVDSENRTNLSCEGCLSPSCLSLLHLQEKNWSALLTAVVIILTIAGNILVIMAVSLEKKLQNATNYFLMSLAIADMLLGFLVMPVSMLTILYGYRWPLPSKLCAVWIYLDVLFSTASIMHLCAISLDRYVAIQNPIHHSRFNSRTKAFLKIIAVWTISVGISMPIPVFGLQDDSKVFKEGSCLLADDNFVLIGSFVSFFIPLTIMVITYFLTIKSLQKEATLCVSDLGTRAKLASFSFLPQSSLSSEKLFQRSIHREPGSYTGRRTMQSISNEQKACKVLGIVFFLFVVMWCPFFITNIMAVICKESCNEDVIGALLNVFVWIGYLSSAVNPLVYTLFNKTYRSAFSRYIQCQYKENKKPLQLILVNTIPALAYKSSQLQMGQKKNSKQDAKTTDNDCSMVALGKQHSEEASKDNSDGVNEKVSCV

Q: For `C=CCOc1ccc(Cl)c(F)c1C1CC1CN` (single isomer, unassigned; (-)) [(−)-Example 32, (−)-(2-(6-(Allyloxy)-3-chloro-2-fluorophenyl)cyclopropyl)methanamine], which EC50 is on record?
A: 1080 nM

Same assay, conditions: EC50, nM 5-HT2A

Q: With `CCCOc1cc(F)c(F)cc1C1CC1CN` (single isomer, unassigned; (+)) [(+)-Example 43, (+)-(2-(4,5-Difluoro-2-propoxyphenyl)cyclopropyl)methanamine] as the molecule, how does the EC50 read?
A: 805 nM

Same assay, conditions: EC50, nM 5-HT2A, human 5-HT2A in HEK-293 cells, FLIPR; NA = no activity at 10 μM

Q: Which EC50 does the source give for `CCOc1cc(F)c(F)cc1C1CC1CN` (single isomer, unassigned; (+)) [(+)-Example 41, (+)-(2-(2-Ethoxy-4,5-difluorophenyl)cyclopropyl)methanamine] here?
A: 260 nM

Q: Which EC50 does the source give for `CCOc1ccc(F)c(F)c1C1CC1CN` (single isomer, unassigned; (+)) [(+)-Example 46, (+)-(2-(6-Ethoxy-2,3-difluorophenyl)cyclopropyl)methanamine] here?
A: 1160 nM

Q: `CCCOc1ccc(F)c(F)c1C1CC1CN` (single isomer, unassigned; (+)) [(+)-Example 48, (+)-(2-(2,3-Difluoro-6-propoxyphenyl)cyclopropyl)methanamine] was tested. Which EC50 did it give?
A: 2070 nM

Q: Which EC50 does the source give for `CCOc1ccc(F)c(Cl)c1C1CC1CN` (single isomer, unassigned; (+)) [(+)-Example 51, (+)-(2-(2-Chloro-6-ethoxy-3-fluorophenyl)cyclopropyl)methanamine] here?
A: 761 nM

Q: `NCC1CC1c1cc(Cl)ccc1OCC(F)F` (single isomer, unassigned; (-)) [(−)-Example 21, (−)-(2-(5-Chloro-2-(2,2-difluoroethoxy)phenyl)cyclopropyl)methanamine] was tested. Which EC50 did it give?
A: 1300 nM

Same assay, conditions: human 5-HT2A in HEK-293 cells, FLIPR; normalized to 5-HT

Q: `CCOc1cc(F)c(F)cc1C1CC1CN` (single isomer, unassigned; (+)) [(+)-Example 41, (+)-(2-(2-Ethoxy-4,5-difluorophenyl)cyclopropyl)methanamine] was tested. Which “Emax, % 5-HT 5-HT2A” value did it give?
A: (69%) % 5-HT

Q: `CCCOc1cc(F)c(F)cc1C1CC1CN` (single isomer, unassigned; (+)) [(+)-Example 43, (+)-(2-(4,5-Difluoro-2-propoxyphenyl)cyclopropyl)methanamine] was tested. Which “Emax, % 5-HT 5-HT2A” value did it give?
A: (23%) % 5-HT

Q: How did the “Emax, % 5-HT 5-HT2A” value turn out when `CCOc1ccc(F)c(F)c1C1CC1CN` (single isomer, unassigned; (+)) [(+)-Example 46, (+)-(2-(6-Ethoxy-2,3-difluorophenyl)cyclopropyl)methanamine] was run?
A: (57%) % 5-HT

Q: Which “Emax, % 5-HT 5-HT2A” value does the source give for `CCCOc1ccc(F)c(F)c1C1CC1CN` (single isomer, unassigned; (+)) [(+)-Example 48, (+)-(2-(2,3-Difluoro-6-propoxyphenyl)cyclopropyl)methanamine] here?
A: (18%) % 5-HT

Q: Which “Emax, % 5-HT 5-HT2A” value does the source give for `CCOc1ccc(F)c(Cl)c1C1CC1CN` (single isomer, unassigned; (+)) [(+)-Example 51, (+)-(2-(2-Chloro-6-ethoxy-3-fluorophenyl)cyclopropyl)methanamine] here?
A: (47%) % 5-HT

Q: `NCC1CC1c1cc(Cl)ccc1OCC(F)F` (single isomer, unassigned; (-)) [(−)-Example 21, (−)-(2-(5-Chloro-2-(2,2-difluoroethoxy)phenyl)cyclopropyl)methanamine] was tested. Which “Emax, % 5-HT 5-HT2A” value did it give?
A: (43%) % 5-HT

Q: With `C=CCOc1ccc(Cl)c(F)c1C1CC1CN` (single isomer, unassigned; (-)) [(−)-Example 32, (−)-(2-(6-(Allyloxy)-3-chloro-2-fluorophenyl)cyclopropyl)methanamine] as the molecule, how does the “Emax, % 5-HT 5-HT2A” value read?
A: (16%) % 5-HT

These molecules were tested against 5-HT2B (Homo sapiens, UniProt P41595) (assay: Calcium flux (FLIPR) assay, human 5-HT2B stably expressed in HEK-293 (Flp-In-293) cells). Settings: EC50, nM 5-HT2B, human 5-HT2B in HEK-293 cells, NA = no activity at 10 μM.
Chain of 5-HT2B (P41595 whole entry): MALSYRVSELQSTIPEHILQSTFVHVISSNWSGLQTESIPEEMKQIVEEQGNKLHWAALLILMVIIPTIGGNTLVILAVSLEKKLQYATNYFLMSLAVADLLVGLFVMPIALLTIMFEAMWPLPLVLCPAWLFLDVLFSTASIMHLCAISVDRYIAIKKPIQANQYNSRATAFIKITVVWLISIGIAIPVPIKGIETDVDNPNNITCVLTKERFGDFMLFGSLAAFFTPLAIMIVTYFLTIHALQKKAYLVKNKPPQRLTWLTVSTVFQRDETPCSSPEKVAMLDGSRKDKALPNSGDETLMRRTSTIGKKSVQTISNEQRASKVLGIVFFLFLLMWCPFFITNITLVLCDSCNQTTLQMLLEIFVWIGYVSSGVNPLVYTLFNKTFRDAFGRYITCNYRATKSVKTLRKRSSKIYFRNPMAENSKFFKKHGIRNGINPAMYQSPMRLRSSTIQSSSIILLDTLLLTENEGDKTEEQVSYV

Q: Which EC50 does the source give for `CCOc1cc(F)c(F)cc1C1CC1CN` (single isomer, unassigned; (+)) [(+)-Example 41, (+)-(2-(2-Ethoxy-4,5-difluorophenyl)cyclopropyl)methanamine] here?
A: 55 nM

Q: How did the EC50 turn out when `CCCOc1cc(F)c(F)cc1C1CC1CN` (single isomer, unassigned; (+)) [(+)-Example 43, (+)-(2-(4,5-Difluoro-2-propoxyphenyl)cyclopropyl)methanamine] was run?
A: 2540 nM

Q: For `CCOc1ccc(F)c(F)c1C1CC1CN` (single isomer, unassigned; (+)) [(+)-Example 46, (+)-(2-(6-Ethoxy-2,3-difluorophenyl)cyclopropyl)methanamine], which EC50 is on record?
A: 288 nM

Q: How did the EC50 turn out when `CCCOc1ccc(F)c(F)c1C1CC1CN` (single isomer, unassigned; (+)) [(+)-Example 48, (+)-(2-(2,3-Difluoro-6-propoxyphenyl)cyclopropyl)methanamine] was run?
A: 4220 nM

Q: For `CCOc1ccc(F)c(Cl)c1C1CC1CN` (single isomer, unassigned; (+)) [(+)-Example 51, (+)-(2-(2-Chloro-6-ethoxy-3-fluorophenyl)cyclopropyl)methanamine], which EC50 is on record?
A: 760 nM

Q: For `NCC1CC1c1cc(Cl)ccc1OCC(F)F` (single isomer, unassigned; (-)) [(−)-Example 21, (−)-(2-(5-Chloro-2-(2,2-difluoroethoxy)phenyl)cyclopropyl)methanamine], which EC50 is on record?
A: 1480 nM

Same assay, conditions: human 5-HT2B in HEK-293 cells, normalized to 5-HT

Q: With `CCOc1cc(F)c(F)cc1C1CC1CN` (single isomer, unassigned; (+)) [(+)-Example 41, (+)-(2-(2-Ethoxy-4,5-difluorophenyl)cyclopropyl)methanamine] as the molecule, how does the “Emax, % 5-HT 5-HT2B” value read?
A: (59%) % 5-HT

Q: `CCCOc1cc(F)c(F)cc1C1CC1CN` (single isomer, unassigned; (+)) [(+)-Example 43, (+)-(2-(4,5-Difluoro-2-propoxyphenyl)cyclopropyl)methanamine] was tested. Which “Emax, % 5-HT 5-HT2B” value did it give?
A: (24%) % 5-HT

Q: `CCOc1ccc(F)c(F)c1C1CC1CN` (single isomer, unassigned; (+)) [(+)-Example 46, (+)-(2-(6-Ethoxy-2,3-difluorophenyl)cyclopropyl)methanamine] was tested. Which “Emax, % 5-HT 5-HT2B” value did it give?
A: (48%) % 5-HT

Q: With `CCCOc1ccc(F)c(F)c1C1CC1CN` (single isomer, unassigned; (+)) [(+)-Example 48, (+)-(2-(2,3-Difluoro-6-propoxyphenyl)cyclopropyl)methanamine] as the molecule, how does the “Emax, % 5-HT 5-HT2B” value read?
A: (39%) % 5-HT

Q: For `CCOc1ccc(F)c(Cl)c1C1CC1CN` (single isomer, unassigned; (+)) [(+)-Example 51, (+)-(2-(2-Chloro-6-ethoxy-3-fluorophenyl)cyclopropyl)methanamine], which “Emax, % 5-HT 5-HT2B” value is on record?
A: (56%) % 5-HT

Q: For `NCC1CC1c1cc(Cl)ccc1OCC(F)F` (single isomer, unassigned; (-)) [(−)-Example 21, (−)-(2-(5-Chloro-2-(2,2-difluoroethoxy)phenyl)cyclopropyl)methanamine], which “Emax, % 5-HT 5-HT2B” value is on record?
A: (30%) % 5-HT

Q: For `C=CCOc1ccc(Cl)c(F)c1C1CC1CN` (single isomer, unassigned; (-)) [(−)-Example 32, (−)-(2-(6-(Allyloxy)-3-chloro-2-fluorophenyl)cyclopropyl)methanamine], which “Emax, % 5-HT 5-HT2B” value is on record?
A: (5%) % 5-HT

Each molecule was assayed against T1, human 5-HT2C-INI (Homo sapiens, UniProt P28335) (assay: Calcium flux (FLIPR) assay, human 5-HT2C-INI stably expressed in HEK-293 (Flp-In-293) cells). Settings: EC50, nM 5-HT2C, human 5-HT2C-INI in HEK-293 cells, FLIPR; NA = no activity at 10 μM.
T1 sequence (P28335 33-458): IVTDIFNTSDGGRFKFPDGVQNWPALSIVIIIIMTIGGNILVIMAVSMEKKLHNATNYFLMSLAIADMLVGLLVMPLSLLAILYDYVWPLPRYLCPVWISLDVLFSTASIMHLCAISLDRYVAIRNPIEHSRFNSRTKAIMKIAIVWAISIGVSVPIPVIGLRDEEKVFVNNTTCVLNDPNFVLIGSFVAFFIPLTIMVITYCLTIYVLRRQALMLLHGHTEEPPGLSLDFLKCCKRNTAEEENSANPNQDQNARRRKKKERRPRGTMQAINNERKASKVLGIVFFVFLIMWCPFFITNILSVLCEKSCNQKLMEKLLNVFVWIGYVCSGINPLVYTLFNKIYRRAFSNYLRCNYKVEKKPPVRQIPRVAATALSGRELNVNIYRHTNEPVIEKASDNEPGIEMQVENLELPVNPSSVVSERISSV

Q: For `CCOc1cc(F)c(F)cc1C1CC1CN` (single isomer, unassigned; (+)) [(+)-Example 41, (+)-(2-(2-Ethoxy-4,5-difluorophenyl)cyclopropyl)methanamine], which EC50 is on record?
A: 2.9 nM

Q: How did the EC50 turn out when `CCCOc1cc(F)c(F)cc1C1CC1CN` (single isomer, unassigned; (+)) [(+)-Example 43, (+)-(2-(4,5-Difluoro-2-propoxyphenyl)cyclopropyl)methanamine] was run?
A: 26 nM

Q: Which EC50 does the source give for `CCOc1ccc(F)c(F)c1C1CC1CN` (single isomer, unassigned; (+)) [(+)-Example 46, (+)-(2-(6-Ethoxy-2,3-difluorophenyl)cyclopropyl)methanamine] here?
A: 7.2 nM

Q: Which EC50 does the source give for `CCCOc1ccc(F)c(F)c1C1CC1CN` (single isomer, unassigned; (+)) [(+)-Example 48, (+)-(2-(2,3-Difluoro-6-propoxyphenyl)cyclopropyl)methanamine] here?
A: 47 nM

Q: Which EC50 does the source give for `CCOc1ccc(F)c(Cl)c1C1CC1CN` (single isomer, unassigned; (+)) [(+)-Example 51, (+)-(2-(2-Chloro-6-ethoxy-3-fluorophenyl)cyclopropyl)methanamine] here?
A: 22 nM

Q: `NCC1CC1c1cc(Cl)ccc1OCC(F)F` (single isomer, unassigned; (-)) [(−)-Example 21, (−)-(2-(5-Chloro-2-(2,2-difluoroethoxy)phenyl)cyclopropyl)methanamine] was tested. Which EC50 did it give?
A: 914 nM

Q: With `C=CCOc1ccc(Cl)c(F)c1C1CC1CN` (single isomer, unassigned; (-)) [(−)-Example 32, (−)-(2-(6-(Allyloxy)-3-chloro-2-fluorophenyl)cyclopropyl)methanamine] as the molecule, how does the EC50 read?
A: 165 nM

Same assay, conditions: human 5-HT2C-INI in HEK-293 cells, FLIPR; normalized to 5-HT

Q: How did the “Emax, % 5-HT 5-HT2C” value turn out when `CCOc1cc(F)c(F)cc1C1CC1CN` (single isomer, unassigned; (+)) [(+)-Example 41, (+)-(2-(2-Ethoxy-4,5-difluorophenyl)cyclopropyl)methanamine] was run?
A: (105%) % 5-HT

Q: How did the “Emax, % 5-HT 5-HT2C” value turn out when `CCCOc1cc(F)c(F)cc1C1CC1CN` (single isomer, unassigned; (+)) [(+)-Example 43, (+)-(2-(4,5-Difluoro-2-propoxyphenyl)cyclopropyl)methanamine] was run?
A: (93%) % 5-HT

Q: With `CCOc1ccc(F)c(F)c1C1CC1CN` (single isomer, unassigned; (+)) [(+)-Example 46, (+)-(2-(6-Ethoxy-2,3-difluorophenyl)cyclopropyl)methanamine] as the molecule, how does the “Emax, % 5-HT 5-HT2C” value read?
A: (107%) % 5-HT

Q: For `CCCOc1ccc(F)c(F)c1C1CC1CN` (single isomer, unassigned; (+)) [(+)-Example 48, (+)-(2-(2,3-Difluoro-6-propoxyphenyl)cyclopropyl)methanamine], which “Emax, % 5-HT 5-HT2C” value is on record?
A: (90%) % 5-HT

Q: Which “Emax, % 5-HT 5-HT2C” value does the source give for `CCOc1ccc(F)c(Cl)c1C1CC1CN` (single isomer, unassigned; (+)) [(+)-Example 51, (+)-(2-(2-Chloro-6-ethoxy-3-fluorophenyl)cyclopropyl)methanamine] here?
A: (15%) % 5-HT

Q: For `NCC1CC1c1cc(Cl)ccc1OCC(F)F` (single isomer, unassigned; (-)) [(−)-Example 21, (−)-(2-(5-Chloro-2-(2,2-difluoroethoxy)phenyl)cyclopropyl)methanamine], which “Emax, % 5-HT 5-HT2C” value is on record?
A: (64%) % 5-HT

Q: For `C=CCOc1ccc(Cl)c(F)c1C1CC1CN` (single isomer, unassigned; (-)) [(−)-Example 32, (−)-(2-(6-(Allyloxy)-3-chloro-2-fluorophenyl)cyclopropyl)methanamine], which “Emax, % 5-HT 5-HT2C” value is on record?
A: (87%) % 5-HT
